Reference: PubChem BioAssay AID1421 (Emory University Molecular Libraries Screening Center, 2008)
“And” between values parts separate entries of the source, which are not always exact repeats. Identical values can stand only once. The source made the active and inactive calls. No rule for the calls is given here.

These compounds were tested against Prostaglandin E2 receptor EP2 subtype (Homo sapiens) (UniProt P43116) (assay: compounds shifting PGE2 potency at EP2 – cell-based, human EP2, PGE2 EC50 shift, dose response (AID 1421)). Settings: EP2-expressing cells, PGE2 EC50 shift by compound.
Prostaglandin E2 receptor EP2 subtype (Homo sapiens), sequence (P43116 whole entry, looked up): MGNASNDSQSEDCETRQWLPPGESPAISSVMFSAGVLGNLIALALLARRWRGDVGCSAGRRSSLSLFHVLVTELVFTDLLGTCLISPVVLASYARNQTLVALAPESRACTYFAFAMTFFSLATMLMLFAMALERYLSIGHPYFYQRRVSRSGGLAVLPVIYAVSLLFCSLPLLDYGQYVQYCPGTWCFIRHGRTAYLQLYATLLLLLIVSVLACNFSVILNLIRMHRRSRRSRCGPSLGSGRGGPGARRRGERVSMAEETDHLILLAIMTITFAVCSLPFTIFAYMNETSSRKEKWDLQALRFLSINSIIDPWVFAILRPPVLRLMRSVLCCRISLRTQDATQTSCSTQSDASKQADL

| Compound | outcome |
| --- | --- |
| O=C(CSc1nnc(-c2ccc(Cl)cc2)n1Cc1ccco1)c1cccs1 | active |
| CC(C)CCn1c(=O)c2ccccc2c2ccccc2c1=O | active |
| COc1ccc(-c2cc(C(F)(F)F)nc(N3CCCCC3)n2)cc1OC | active |
| CC(C)C(=O)c1cc2c(cc1NC(=O)c1ccccc1)OCCO2 | active |
| CCOc1cc(-c2noc(-c3ccncc3)n2)cc(Br)c1OC | active |
| CCC(C)N(C)C(=O)c1cc2ccccc2c(-c2ccccc2Cl)n1 (stereo not given) | active |
| Cn1c(=O)c(NC2CCCCC2)c2c3c(cccc31)C(=O)c1ccccc1-2 | active |
| CC(C)OC(=O)CSc1nc(Cc2ccccc2)nc2ccccc12 | active |
| CC(=O)N(Cc1cccs1)Cc1cc2ccc(C)c(C)c2nc1Cl | active |
| Cc1ccc(C)c(NC(=S)N(Cc2ccco2)C(C)c2cccs2)c1 (stereo not given) | active |
| CCOC(=O)C1=C(CN2CCc3ccccc32)NC(=O)NC1c1ccc(Cl)cc1 (stereo not given) | active |

Same assay, conditions: EP2-expressing cells, PGE2 EC50 shift by compound; measured here: PGE2 EC50 at 6.7 uM compound

| Compound | PGE2 EC50 with compound |
| --- | --- |
| Cc1ccc(S(=O)(=O)NCC(=O)OCN2C(=O)c3ccccc3C2=O)cc1 | 1.01 nM |
| O=C(Cc1c(F)cccc1Cl)Nc1ccccc1N1CCCCC1 | 2.55 nM |
| CCN(Cc1ccccc1)C(c1cc2cc(C)cc(C)c2[nH]c1=O)c1nnnn1CCOC (stereo not given) | 1.28 nM |
| COc1ccc(-n2c(COc3ccc(Cl)cc3)nnc2SCc2ccc(C#N)cc2)cc1 | 1.22 nM |
| COCC(=O)Nc1sc2c(c1C(=O)OC)CCC(C)C2 (stereo not given) | 1.32 nM |
| CC(=O)OC[C@@]1(O)C[C@@]23CCC4c5ccoc5CC[C@]4(C)C2CC[C@@H]1C3 (stereo not given in full) | 0.85 nM |
| CCOC(=O)C(Cc1ccccc1)(NC(C)=O)C(=O)OCC | 1.39 nM |
| COc1ccc(Cn2c(-c3ccc(OC)cc3)nc3ccccc32)cc1 | 1 nM |
| Cc1ccc(S(=O)(=O)n2c3ccc(F)cc3c3nc(C)sc32)cc1 | 0.84 nM |
| CSc1nc(NCc2ccco2)c2ccccc2n1 | 1.3 nM |
| O=c1c2oc3ccccc3c2[nH]c(=S)n1-c1ccccc1 | 1.25 nM |
| Cc1ccc(N(C(=O)c2snc(C(N)=O)c2N)C(C(=O)NCCC(C)C)c2ccco2)cc1 (stereo not given) | 2.61 nM |
| COc1ccc(C(=O)NCCCN2CCOCC2)cc1OC | 0.99 nM |
| CC(=O)NC(c1ccccc1)c1cccnc1 (stereo not given) | 1.03 nM |
| CCOC(=O)c1c(C)nc2ccccc2c1-c1ccccc1 | 1.31 nM |
| Cc1cc(SCCC(=O)O)nc2c(C)cccc12 | 1.01 nM |
| C[C@H](C(=O)c1ccccc1)[C@@H](c1ccccc1)N1CCOCC1 | 1.43 nM |
| COc1ccccc1/C=C(/C(=O)OCC(=O)Nc1ccccc1C(C)C)c1ccccc1 | 1.1 nM |
| Cc1cc(C)c(S(=O)(=O)c2ccccc2)c(OC(=O)c2cc(F)c(F)cc2Cl)n1 | 0.91 nM |
| CCc1ccc(C2=Nn3c(nnc3-c3cccs3)SC2)cc1 | 1.43 nM |
| CC(=O)O[C@H]1CC[C@@]2(C)[C@@H](CC[C@H]3[C@H]2CC(=O)[C@]2(C)[C@@H]3C[C@H]3CC(C)=CC(=O)[C@@H]32)C1 | 1.34 nM |
| C[C@]12CCC3C(CC[C@H]4C[C@@H](Cl)CC[C@]34C)C1CCC2=O (stereo not given in full) | 0.99 nM |

| Compound | PGE2 EC50 with compound |
| --- | --- |
| COc1ccccc1CNC(=O)C1(c2ccc(Cl)cc2)CC1 | 0.82 nM |
| CC(C)C1(C)N=C(c2ncccc2C(=O)O)NC1=O (stereo not given) | 2.52 nM |
| O=C(CSc1nnc(-c2ccc(Cl)cc2)n1Cc1ccco1)c1cccs1 | 2.65 nM |
| Cc1ccccc1OCc1nc2ccccc2c(=O)n1/N=C/c1ccco1 | 1.02 nM |
| CC(C)CCn1c(=O)c2ccccc2c2ccccc2c1=O | 1.07 nM |
| CCC1(CC)Cc2ccccc2-c2nc(NCCO)[nH]c(=O)c21 | 1.25 nM |
| CCOC(=O)c1c(NC(=O)CSc2nnc(N)s2)sc(C)c1-c1ccc(C)cc1 | 0.48 nM |
| O=S(=O)(c1ccc(F)cc1)c1snnc1-c1ccccc1 | 0.89 nM |
| COc1cc2ccccc2cc1C(=O)NC(=S)Nc1cc(C(=O)O)ccc1C | 3.08 nM |
| CCc1oc2ccccc2c1C(=O)c1cc(Br)c(O)c(Br)c1 | 1.02 nM and 0.68 nM |
| CSc1nc(-c2ccc(Cl)cc2)nn1S(=O)(=O)c1ccccc1 | 1.03 nM |
| O=c1c2c(n3nnnc3n1-c1ccccc1)-c1ccccc1CC21CCCC1 | 1.01 nM |
| COc1ccc(-c2cc(C(F)(F)F)nc(N3CCCCC3)n2)cc1OC | 0.57 nM |
| CCOC(=O)c1[nH]c2ccc(OC)cc2c1NS(=O)(=O)c1ccc(Cl)s1 | 2.87 nM |
| COc1ccc(N2CCN(c3nc4c(c(=O)n(C)c(=O)n4C)n3Cc3ccccc3)CC2)cc1 | 0.92 nM |
| CN(C)c1nc(N2CCOCC2)nc(N(c2ccccc2)c2ccccc2)n1 | 0.61 nM |
| CCC1CCc2c(sc3ncnc(N4CCOCC4)c23)C1 (stereo not given) | 0.81 nM |
| CN1C(=O)/C(=C/c2ccccc2OCc2cccc(F)c2)N(C)C1=S | 0.81 nM |
| O=c1cc(N2CCCCC2)c(-c2ccccc2)nn1Cc1cccc(F)c1 | 0.33 nM |
| CCOC(=O)c1c(-c2ccc(-c3ccccc3)cc2)csc1NC(=O)CCN1CCOCC1 | 1.34 nM |
| Cc1cc(-c2ccccc2)nc2cc(C(=O)N(Cc3ccccc3)Cc3ccccc3)nn12 | 1.03 nM |
| O=c1nc(-c2ccccc2)cc(-c2ccccc2)[nH]1 | 2.21 nM |
